From patent publication US20120115842A1 (priority 2004, published 2012)

Target: T1, human vasopressin V1b receptor (Homo sapiens, UniProt P47901)
T1 construct: expressed in transfected cells; host or cells: CHO-K1 (cell line hV1b-3H2_CHO), membranes
T1 sequence (P47901 1-424): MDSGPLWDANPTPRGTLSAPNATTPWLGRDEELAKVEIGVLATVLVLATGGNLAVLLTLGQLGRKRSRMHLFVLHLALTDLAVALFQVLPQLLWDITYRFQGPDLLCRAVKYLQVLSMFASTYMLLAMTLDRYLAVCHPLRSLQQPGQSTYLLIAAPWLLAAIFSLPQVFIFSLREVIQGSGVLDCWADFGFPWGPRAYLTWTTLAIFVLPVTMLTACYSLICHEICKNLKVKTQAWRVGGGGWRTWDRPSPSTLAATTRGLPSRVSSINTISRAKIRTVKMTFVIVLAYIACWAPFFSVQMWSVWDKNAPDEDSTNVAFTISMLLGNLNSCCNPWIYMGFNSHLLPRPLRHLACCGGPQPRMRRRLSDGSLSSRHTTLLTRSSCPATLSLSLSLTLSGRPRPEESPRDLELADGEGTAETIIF
Experiment: Vasopressin V1b receptor binding assay (3H-AVP displacement)
Conditions: for Ki: membranes from CHO-K1 cells with stably expressed human V1b receptors, 1.5 nM 3H-AVP, read-out: affinity constants (Ki) for the human vasopressin V1b receptor; for selectivity vis-a-vis V1b by comparison with V1a, V2 and/or OT: quotient of Ki values: Ki(V1a)/Ki(V1b), Ki(V2)/Ki(V1b) and/or Ki(OT)/Ki(V1b)
Protocol: The test substances were dissolved in a concentration of 10^−2 M in DMSO and further diluted to 5×10^−4 M to 5×10^−9 M in DMSO. These DMSO solutions were diluted 1:10 with assay buffer. The substance concentration was again diluted 1:5 in the assay mixture.
CHO-K1 cells with stably expressed human vasopressin V1b receptor (clone 3H2) were harvested and homogenized in 50 mM Tris-HCl and in the presence of protease inhibitors (Roche complete Mini #1836170) with a Polytron homogenizer at a medium setting for 2×10 seconds and subsequently centrifuged at 40 000×g for 1 h. The membrane pellet was again homogenized and centrifuged as described and then taken up in 50 mM Tris-HCl, pH 7.4, homogenized and stored in aliquots frozen in liquid nitrogen at −190° C.
The binding assay was carried out by a method based on that of Tahara et al. (Tahara A et al., Brit. J. Pharmacol. 125, 1463-1470 (1998)). The incubation buffer was: 50 mM Tris, 10 mM MgCl2, 0.1% BSA, pH 7.4.
In the assay mixture (250 μl), membranes (50 μg/ml protein in incubation buffer) from CHO-K1 cells with stably expressed human V1b receptors (cell line hV1b—3H2_CHO) were incubated with 1.5 nM ^3H-AVP (8-Arg-vasopressin, PerkinElmer #18479) in incubation buffer (50 mM Tris, 10 mM MgCl2, 0.1% BSA, pH 7.4) (total binding) or additionally with increasing concentrations of test substance (displacement experiment). The nonspecific binding was determined with 1 uM AVP (Bachem # H1780). All determinations were carried out as triplicate determinations. After incubation (60 minutes at room temperature), the free radioligand was removed by vacuum filtration (Skatron cell harvester 7000) through Wathman G F/B glass fiber filter mats, and the filters were transferred into scintillation vials. The liquid scintillation measurement took place in a Tricarb model 2000 or 2200CA instrument (Packard). Conversion of the measured cpm into dpm was carried out with the aid of a standard quench series.
The binding parameters were calculated by nonlinear regression in SAS. The algorithms of the program operate in analogy to the LIGAND analysis program (Munson P J and Rodbard D, Analytical Biochem. 107, 220-239 (1980)). The Kd of ^3H-AVP for the recombinant […] receptors is 0.4 nM and was used to determine the Ki value.

Row | Ki [nM] | selectivity vis-a-vis V1b by comparison with V1a, V2 and/or OT | Compound
1 | < 100 | improved selectivity | COc1ccc(S(=O)(=O)N2C(=O)C(c3ccccc3OC)(N(C)[C@@H](C)C(=O)N(C)C)c3cc(C#N)ccc32)cc1 (mixture of isomers) [Example 15]
2 | < 100 | improved selectivity | COc1ccc(S(=O)(=O)N2C(=O)C(c3ccccc3OC)(N3CC(O)CC3C(=O)N(C)C)c3cc(C#N)ccc32)c(OC)c1 (single isomer, unassigned) [Example 1]
3 | – | improved selectivity | COc1ccc(S(=O)(=O)N2C(=O)C(c3ccccc3OC)(N3CC(O)CC3C(=O)N(C)C)c3cc(C#N)ccc32)c(OC)c1 (single isomer, unassigned; (+)) [Example 16]
4 | < 100 | improved selectivity | COc1ccc(S(=O)(=O)N2C(=O)C(c3ccccc3OC)(N3CCC[C@H]3C(=O)N(C)C)c3cc(C#N)ccc32)cc1 (single isomer, unassigned; (+)) [Example 17b]
5 | < 100 | improved selectivity | COc1ccc(S(=O)(=O)N2C(=O)C(c3ccccc3OC)(N3C[C@H](O)C[C@H]3C(=O)N(C)C)c3cc(C#N)ccc32)cc1 (stereo partly drawn) [Example 19, (−)-(2S,4R)-1-[5-Cyano-1-(4-methoxybenzenesulfonyl)-3-(2-methoxyphenyl)-2-oxo-2,3-dihydro-1H-indol-3-yl]-4-hydroxypyrrolidine-2-dimethylcarboxamide]
